Laboratory results taken from patent US10774051B2, “6-membered heterocyclic derivatives and pharmaceutical composition comprising the same” (Shionogi & Co., Ltd., priority 2015, dated 2020).
Where two headings read alike, the source gives them in different places.

Target: human P2X7 receptor (Homo sapiens, UniProt Q99572, R270H/Y155H)
Assay: Evaluation of human P2X7 receptor inhibitory activity (Yo-Pro uptake, BzATP stimulation, FLIPR TETRA)
Type: cell-based
Conditions: 1321N1 cells stably expressing human P2X7 receptor, BzATP stimulation, Yo-Pro uptake
Protocol: Stably expressing cell line (1321N1 cell transfected with the human P2X7 receptor gene (GenBank accession number NM_002562.5 including T606C and G952A SNP)) was used. The cells were seeded in a 384-well microtiter plate at a concentration of 8000 cells/well and cultured in the medium (10% fetal bovine serum, 25 mM HEPES, 1% penicillin and streptomycin in DMEM) for one day at 37° C. under 5% carbon dioxide atmosphere. After replacing with 20 μL of the HBSS buffer (20 mM HEPES, 55.6 mM D-glucose, 1×HBSS(−), pH7.4-7.5), 15 μL of 17.3 μM Yo-Pro solution in the HBSS buffer was added. The plate was placed in high-throughput cellular screening system FLIPR TETRA (Molecullar Devices, LLC.) and 15 μL of 130 μM BzATP solution in the HBSS buffer was added. Measurement of fluorescence intensity by FLIPR TETRA was started. After eight minutes, 15 μL of DMSO solutions containing different concentrations of the compound of the present invention as prepared by dilution with the HBSS buffer were dispensed to each well through the built-in automatic dispenser, and the measurement of fluorescence intensity was continued for 20 minutes. […] Changing values of fluorescence intensity by the compound of the present invention were calculated by difference between maximum and minimum fluorescence intensity for 20 minutes. Inhibition ratios (%) were calculated from the following equation:
[formula] IC50 was calculated using logistic approximation.

[1] = read-out: IC50 (antagonistic activity for the human P2X7 receptor), class symbol
[2] = read-out: IC50 (antagonistic activity for the human P2X7 receptor)

Row | Structure (SMILES) | IC50 [1] [nM] | IC50 [2] [nM]
1 | COc1cn(Cc2cccc(C)c2)c(Nc2cccc(Cl)c2C)nc1=O [Compound I-0044] | 10 to 100 | –
2 | COc1cn(Cc2ccc(C)cc2)c(Nc2cccc(Cl)c2C)nc1=O [Compound I-0045] | 500 to 1000 | –
3 | COc1cn(Cc2cccc(C#N)c2)c(Nc2cccc(Cl)c2C)nc1=O [Compound I-0047] | 500 to 1000 | –
4 | COc1cn(Cc2ccccc2)c(Nc2cccc3c2CCNC3)nc1=O [Compound I-0050] | 500 to 1000 | –
5 | COc1cccc(Cn2cc(OC)c(=O)nc2Nc2cccc(Cl)c2C)c1 [Compound I-0052] | – | 130
6 | COc1ccccc1Cn1cc(OC)c(=O)nc1Nc1cccc(Cl)c1C [Compound I-0054] | 100 to 500 | –
7 | Cc1c(Cl)cccc1Nc1nc(=O)ccn1CCc1ccccc1 [Compound I-0055] | – | 26
8 | Cc1c(Cl)cccc1Nc1nc(=O)c(C#N)cn1Cc1ccc(F)cc1 [Compound I-0056] | 10 to 100 | –
9 | COc1cn(Cc2ccccc2)c(Nc2ccccc2Cl)nc1=O [Compound I-0060] | 500 to 1000 | –
10 | COc1cn(Cc2ccccc2)c(Nc2ccccc2C)nc1=O [Compound I-0061] | 500 to 1000 | –
11 | COc1cn(Cc2ccccc2)c(Nc2cccc3c2CCC3)nc1=O [Compound I-0062] | – | 590
12 | COc1cn(Cc2ccccc2)c(NCc2ccccc2C(F)(F)F)nc1=O [Compound I-0065] | 500 to 1000 | –
13 | COc1cn(Cc2ccccc2)c(NCc2ccccc2Oc2ccc(C)cc2)nc1=O [Compound I-0066] | 500 to 1000 | –
14 | COc1cn(Cc2ccccc2)c(NCc2ccccc2N(C)C)nc1=O [Compound I-0067] | 500 to 1000 | –
15 | COc1cn(Cc2ccccc2)c(Nc2cc(C)ccc2C)nc1=O [Compound I-0068] | 10 to 100 | –
16 | COc1cn(Cc2ccccc2)c(Nc2cc(N3CCCS3(=O)=O)ccc2C)nc1=O [Compound I-0070] | 10 to 100 | –
17 | COc1cn(Cc2ccccc2)c(Nc2ccc(Cl)cc2Cl)nc1=O [Compound I-0071] | 100 to 500 | –
18 | COc1cn(Cc2ccccc2)c(Nc2ccc(Cl)cc2C)nc1=O [Compound I-0072] | 10 to 100 | –
19 | COc1cn(Cc2ccccc2)c(NC2CCc3ccccc32)nc1=O (stereo not shown) [Compound I-0073] | 500 to 1000 | –
20 | COc1ccc(C)c(Nc2nc(=O)c(OC)cn2Cc2ccccc2)c1 [Compound I-0074] | 10 to 100 | –
21 | Cc1c(Cl)cccc1Nc1nc(=O)c(C(=O)NCC#N)cn1Cc1ccccc1 [Compound I-0075] | 100 to 500 | –
22 | COCCNC(=O)c1cn(Cc2ccccc2)c(Nc2cccc(Cl)c2C)nc1=O [Compound I-0076] | 100 to 500 | –
23 | Cc1c(Cl)cccc1Nc1nc(=O)c(C(=O)NCCS(C)(=O)=O)cn1Cc1ccccc1 [Compound I-0077] | 10 to 100 | –
24 | CCNC(=O)c1cn(Cc2ccccc2)c(Nc2cccc(Cl)c2C)nc1=O [Compound I-0078] | 100 to 500 | –
25 | COc1cn(Cc2ccccc2)c(Nc2cc(Cl)ccc2Cl)nc1=O [Compound I-0080] | 100 to 500 | –
26 | COc1cn(Cc2ccccc2)c(Nc2cccc(F)c2C)nc1=O [Compound I-0082] | 100 to 500 | –
27 | COc1cn(Cc2ccccc2)c(Nc2c(Cl)cccc2Cl)nc1=O [Compound I-0083] | 500 to 1000 | –

Row | Structure (SMILES) | IC50 [1] [nM] | IC50 [2] [nM]
28 | CCc1ccccc1Nc1nc(=O)c(OC)cn1Cc1ccccc1 [Compound I-0084] | 10 to 100 | –
29 | COc1cn(Cc2ccccc2)c(Nc2cccc(C(F)(F)F)c2C)nc1=O [Compound I-0085] | 10 to 100 | –
30 | COC(=O)c1cccc(Nc2nc(=O)c(OC)cn2Cc2ccccc2)c1C [Compound I-0088] | 100 to 500 | –
31 | COc1cn(Cc2ccccc2)c(Nc2ccccc2C(F)(F)F)nc1=O [Compound I-0089] | 500 to 1000 | –
32 | COc1cn(Cc2ccccc2)c(Nc2cc(F)ccc2C)nc1=O [Compound I-0090] | 100 to 500 | –
33 | COc1cn(Cc2ccccc2)c(Nc2cccc(-n3cccc3)c2C)nc1=O [Compound I-0091] | 100 to 500 | –
34 | COc1cn(Cc2ccccc2)c(Nc2cc(Cl)ccc2C)nc1=O [Compound I-0092] | 100 to 500 | –
35 | COc1cn(Cc2ccccc2)c(Nc2cccc(OC(F)F)c2C)nc1=O [Compound I-0093] | 10 to 100 | –
36 | COc1cn(Cc2ccccc2)c(Nc2cccc(C)c2C)nc1=O [Compound I-0095] | 10 to 100 | –
37 | COc1cn(Cc2ccccc2)c(Nc2cccc(Cl)c2Cl)nc1=O [Compound I-0096] | 10 to 100 | –
38 | COc1cn(Cc2ccccc2)c(Nc2cc(C(F)(F)F)ccc2C)nc1=O [Compound I-0097] | 100 to 500 | –
39 | Cc1c(Cl)cccc1Nc1nc(=O)c(C(=O)NCC(F)(F)F)cn1Cc1ccccc1 [Compound I-0098] | 500 to 1000 | –
40 | COc1cn(CCCc2ccccc2)c(Nc2cccc(Cl)c2C)nc1=O [Compound I-0099] | 100 to 500 | –
41 | Cc1c(Cl)cccc1Nc1nc(=O)c(C(=O)N(C)C)cn1Cc1ccccc1 [Compound I-0100] | 100 to 500 | –
42 | CCc1cc(Br)ccc1Nc1nc(=O)c(OC)cn1Cc1ccccc1 [Compound I-0101] | 10 to 100 | –
43 | COc1cn(Cc2ccccc2)c(NCc2ccccc2C)nc1=O [Compound I-0102] | 100 to 500 | –
44 | COc1cn(Cc2ccccc2)c(Nc2cccc3occc23)nc1=O [Compound I-0103] | 100 to 500 | –
45 | COc1cn(Cc2ccccc2)c(Nc2cccc3sccc23)nc1=O [Compound I-0104] | – | 41
46 | CCc1ccccc1Nc1nc(=O)c(Cl)cn1Cc1ccccc1 [Compound I-0105] | 100 to 500 | –
47 | COc1cn(Cc2ccccc2)c(Nc2ccc(C)cc2C)nc1=O [Compound I-0106] | 10 to 100 | –
48 | CCc1ccccc1Nc1nc(=O)c(Br)cn1Cc1ccccc1 [Compound I-0107] | 100 to 500 | –
49 | Cc1cccc(Nc2nc(=O)c(Br)cn2Cc2ccccc2)c1C [Compound I-0108] | 10 to 100 | –
50 | CCCc1ccccc1Nc1nc(=O)c(OC)cn1Cc1ccccc1 [Compound I-0109] | 500 to 1000 | –
51 | COc1cn(Cc2ccccc2)c(Nc2cccc(CO)c2C)nc1=O [Compound I-0110] | 100 to 500 | –
52 | Cc1c(Cl)cccc1Nc1nc(=O)c(C(=O)OC(C)(C)C)cn1Cc1ccccc1 [Compound I-0111] | 100 to 500 | –
53 | Cc1cccc(Nc2nc(=O)c(C(=O)O)cn2Cc2ccccc2)c1Cl [Compound I-0112] | 10 to 100 | –
54 | COc1ccccc1CNc1nc(=O)c(OC)cn1Cc1ccccc1 [Compound I-0113] | 500 to 1000 | –

Row | Structure (SMILES) | IC50 [1] [nM] | IC50 [2] [nM]
55 | CCc1ccccc1CNc1nc(=O)c(OC)cn1Cc1ccccc1 [Compound I-0114] | 100 to 500 | –
56 | COc1cccc(Nc2nc(=O)c(OC)cn2Cc2ccccc2)c1Cl [Compound I-0115] | 10 to 100 | –
57 | CCc1cc2c(cc1Nc1nc(=O)c(OC)cn1Cc1ccccc1)CCC2 [Compound I-0116] | < 10 | –
58 | COc1cn(Cc2ccccc2)c(Nc2cccc3c2ccn3C)nc1=O [Compound I-0117] | 10 to 100 | –
59 | COc1cn(Cc2ccccc2)c(Nc2ccccc2Cc2ccccc2)nc1=O [Compound I-0118] | 10 to 100 | –
60 | COc1cn(Cc2ccccc2)c(Nc2cccc3c2CCO3)nc1=O [Compound I-0120] | – | 670
61 | COc1cn(Cc2ccccc2)c(NCc2cccc(Cl)c2C)nc1=O [Compound I-0121] | – | 280
62 | COc1cn(Cc2ccccc2)c(Nc2cc(C)c(C)cc2C)nc1=O [Compound I-0124] | < 10 | –
63 | COc1cn(Cc2ccccc2Cl)c(Nc2cccc(Cl)c2C)nc1=O [Compound I-0125] | 10 to 100 | –
64 | COc1cn(Cc2cccc(Cl)c2)c(Nc2cccc(Cl)c2C)nc1=O [Compound I-0126] | 10 to 100 | –
65 | COc1cn(Cc2ccc(Cl)cc2)c(Nc2cccc(Cl)c2C)nc1=O [Compound I-0127] | 10 to 100 | –
66 | Cc1cccc(Nc2nc(=O)c(F)cn2Cc2ccccc2)c1C [Compound I-0128] | 10 to 100 | –
67 | COc1cn(Cc2ccccc2)c(Nc2cccc(OC(C)C)c2C)nc1=O [Compound I-0129] | 100 to 500 | –
68 | COc1c(C)cccc1Nc1nc(=O)c(OC)cn1Cc1ccccc1 [Compound I-0130] | 100 to 500 | –
69 | COc1cn(Cc2ccccc2)c(NCc2c(C)cccc2C)nc1=O [Compound I-0131] | 100 to 500 | –
70 | COc1cn(Cc2ccccc2)c(Nc2ccc(Cl)c(Cl)c2Cl)nc1=O [Compound I-0132] | 100 to 500 | –
71 | COc1cn(Cc2ccccc2)c(Nc2cccc(OC(F)F)c2Cl)nc1=O [Compound I-0133] | 100 to 500 | –
72 | COc1cn(Cc2ccccc2)c(Nc2cccc3[nH]c(C)cc23)nc1=O [Compound I-0134] | 10 to 100 | –
73 | CCc1cccc(Nc2nc(=O)c(OC)cn2Cc2ccccc2)c1CC [Compound I-0136] | < 10 | –
74 | CCOc1cn(Cc2ccccc2)c(Nc2cccc(Cl)c2C)nc1=O [Compound I-0137] | 10 to 100 | –
75 | COc1cn(Cc2ccccc2)c(Nc2cccc(Oc3ccccc3)c2C)nc1=O [Compound I-0138] | 500 to 1000 | –
76 | Cc1cccc(Nc2nc(=O)c(F)cn2Cc2ccc(F)cc2)c1C [Compound I-0139] | < 10 | –
77 | CCc1ccccc1Nc1nc(=O)c(F)cn1Cc1ccc(F)cc1 [Compound I-0140] | 10 to 100 | –
78 | COc1cn(Cc2ccc(F)cc2)c(Nc2cccc(C)c2C)nc1=O [Compound I-0141] | 10 to 100 | –
79 | Cc1c(Cl)cccc1Nc1nc(=O)c(OC(C)C)cn1Cc1ccccc1 [Compound I-0142] | 10 to 100 | –
